ChEMBL document CHEMBL3596138, “A double effect molecular switch leads to a novel potent negative allosteric modulator of metabotropic glutamate receptor 5” (Medchemcomm, 2014)

Legend:
[1] = molecular target: Metabotropic glutamate receptor 5 (Rattus norvegicus) (UniProt P31424); settings: HEK293
Description: Agonist activity at rat mGlu5 receptor expressed in HEK293 cells by inositol phosphate accumulation assay

[2] = molecular target: Metabotropic glutamate receptor 4 (Rattus norvegicus, UniProt P31423); test: Positive allosteric modulator activity at rat mGlu4 receptor expressed in HEK293 cells assessed as effect on L-AP4-induced inositol phosphate accumulation incubated for 30 mins by florescence assay; assay type: functional, cell-based
Metabotropic glutamate receptor 4, sequence (P31423 whole entry): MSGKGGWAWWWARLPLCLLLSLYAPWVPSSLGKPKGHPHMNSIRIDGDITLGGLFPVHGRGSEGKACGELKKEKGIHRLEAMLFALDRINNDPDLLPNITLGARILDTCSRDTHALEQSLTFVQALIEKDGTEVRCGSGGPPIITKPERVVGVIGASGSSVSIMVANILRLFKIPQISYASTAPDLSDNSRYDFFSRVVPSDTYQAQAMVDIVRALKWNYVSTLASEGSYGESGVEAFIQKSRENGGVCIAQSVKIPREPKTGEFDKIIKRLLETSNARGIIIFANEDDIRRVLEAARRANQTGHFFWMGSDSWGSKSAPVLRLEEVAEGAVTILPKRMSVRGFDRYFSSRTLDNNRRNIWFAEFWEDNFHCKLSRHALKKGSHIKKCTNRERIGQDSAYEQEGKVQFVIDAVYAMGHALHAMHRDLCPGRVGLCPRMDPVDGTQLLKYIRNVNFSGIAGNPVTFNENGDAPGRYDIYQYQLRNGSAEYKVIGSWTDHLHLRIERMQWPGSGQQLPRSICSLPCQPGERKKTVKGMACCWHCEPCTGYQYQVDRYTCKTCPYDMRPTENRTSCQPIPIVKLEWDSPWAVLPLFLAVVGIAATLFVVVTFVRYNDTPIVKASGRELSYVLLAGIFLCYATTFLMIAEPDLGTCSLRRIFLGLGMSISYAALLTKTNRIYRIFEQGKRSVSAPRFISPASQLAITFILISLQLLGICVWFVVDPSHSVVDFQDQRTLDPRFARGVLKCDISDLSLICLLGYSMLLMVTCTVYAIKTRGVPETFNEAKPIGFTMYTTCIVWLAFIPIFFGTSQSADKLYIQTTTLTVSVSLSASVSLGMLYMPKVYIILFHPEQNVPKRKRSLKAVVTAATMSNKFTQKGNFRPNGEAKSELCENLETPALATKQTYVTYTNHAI

[3] = molecular target: Metabotropic glutamate receptor 5 (Rattus norvegicus, UniProt P31424); test: Negative allosteric modulator activity at rat mGlu5 receptor expressed in HEK293 cells assessed as effect on quisqualate-induced inositol phosphate accumulation incubated for 30 mins by florescence assay; assay type: functional, cell-based
Metabotropic glutamate receptor 5, sequence (P31424 whole entry): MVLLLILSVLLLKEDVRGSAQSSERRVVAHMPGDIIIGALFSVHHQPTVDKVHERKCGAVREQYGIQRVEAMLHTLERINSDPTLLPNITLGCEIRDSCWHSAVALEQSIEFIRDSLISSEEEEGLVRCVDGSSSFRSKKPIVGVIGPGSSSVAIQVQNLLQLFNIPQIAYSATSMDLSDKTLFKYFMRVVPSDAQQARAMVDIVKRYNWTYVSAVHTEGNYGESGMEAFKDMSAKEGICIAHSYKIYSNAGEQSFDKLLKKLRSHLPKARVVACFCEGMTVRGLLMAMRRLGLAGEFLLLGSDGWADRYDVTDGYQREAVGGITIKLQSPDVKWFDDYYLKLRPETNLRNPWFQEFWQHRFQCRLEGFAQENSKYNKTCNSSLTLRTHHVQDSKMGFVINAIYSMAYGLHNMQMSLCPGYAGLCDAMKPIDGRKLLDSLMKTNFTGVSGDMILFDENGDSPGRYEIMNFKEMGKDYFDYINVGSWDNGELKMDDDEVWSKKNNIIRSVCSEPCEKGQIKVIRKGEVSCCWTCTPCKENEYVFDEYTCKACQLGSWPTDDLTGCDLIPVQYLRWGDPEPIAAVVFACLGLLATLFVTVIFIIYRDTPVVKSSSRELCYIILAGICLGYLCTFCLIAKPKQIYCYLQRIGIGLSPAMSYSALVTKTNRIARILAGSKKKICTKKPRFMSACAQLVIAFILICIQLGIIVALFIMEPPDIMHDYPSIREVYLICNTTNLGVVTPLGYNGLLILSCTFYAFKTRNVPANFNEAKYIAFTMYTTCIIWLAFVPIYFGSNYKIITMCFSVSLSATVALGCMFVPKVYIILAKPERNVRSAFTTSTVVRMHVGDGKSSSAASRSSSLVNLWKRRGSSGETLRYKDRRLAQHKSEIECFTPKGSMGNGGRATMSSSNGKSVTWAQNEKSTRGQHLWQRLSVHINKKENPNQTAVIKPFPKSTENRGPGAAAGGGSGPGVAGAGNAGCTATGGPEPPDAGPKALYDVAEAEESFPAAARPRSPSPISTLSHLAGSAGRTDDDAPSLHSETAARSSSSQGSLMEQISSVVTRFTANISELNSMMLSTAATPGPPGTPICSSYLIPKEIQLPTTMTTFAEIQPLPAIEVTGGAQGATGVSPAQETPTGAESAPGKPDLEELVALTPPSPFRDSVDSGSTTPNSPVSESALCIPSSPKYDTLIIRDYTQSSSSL

[4] = molecular target: Metabotropic glutamate receptor 5 (Rattus norvegicus) (UniProt P31424); test: Potency index, ratio of IC50 for MPEP to IC50 for test compound for negative allosteric modulator activity at rat mGlu5 receptor expressed in HEK293 cells; assay type: cell-based
[5] = molecular target: Metabotropic glutamate receptor 4 (Rattus norvegicus) (UniProt P31423); settings: HEK293
Metabotropic glutamate receptor 4 (Rattus norvegicus), sequence (P31423 whole entry): as the sequence (P31423 whole entry) above
Description: Agonist activity at rat mGlu4 receptor expressed in HEK293 cells by inositol phosphate accumulation assay

Metabotropic glutamate receptor 5 (Rattus norvegicus), sequence (P31424 21-1203 limits assumed): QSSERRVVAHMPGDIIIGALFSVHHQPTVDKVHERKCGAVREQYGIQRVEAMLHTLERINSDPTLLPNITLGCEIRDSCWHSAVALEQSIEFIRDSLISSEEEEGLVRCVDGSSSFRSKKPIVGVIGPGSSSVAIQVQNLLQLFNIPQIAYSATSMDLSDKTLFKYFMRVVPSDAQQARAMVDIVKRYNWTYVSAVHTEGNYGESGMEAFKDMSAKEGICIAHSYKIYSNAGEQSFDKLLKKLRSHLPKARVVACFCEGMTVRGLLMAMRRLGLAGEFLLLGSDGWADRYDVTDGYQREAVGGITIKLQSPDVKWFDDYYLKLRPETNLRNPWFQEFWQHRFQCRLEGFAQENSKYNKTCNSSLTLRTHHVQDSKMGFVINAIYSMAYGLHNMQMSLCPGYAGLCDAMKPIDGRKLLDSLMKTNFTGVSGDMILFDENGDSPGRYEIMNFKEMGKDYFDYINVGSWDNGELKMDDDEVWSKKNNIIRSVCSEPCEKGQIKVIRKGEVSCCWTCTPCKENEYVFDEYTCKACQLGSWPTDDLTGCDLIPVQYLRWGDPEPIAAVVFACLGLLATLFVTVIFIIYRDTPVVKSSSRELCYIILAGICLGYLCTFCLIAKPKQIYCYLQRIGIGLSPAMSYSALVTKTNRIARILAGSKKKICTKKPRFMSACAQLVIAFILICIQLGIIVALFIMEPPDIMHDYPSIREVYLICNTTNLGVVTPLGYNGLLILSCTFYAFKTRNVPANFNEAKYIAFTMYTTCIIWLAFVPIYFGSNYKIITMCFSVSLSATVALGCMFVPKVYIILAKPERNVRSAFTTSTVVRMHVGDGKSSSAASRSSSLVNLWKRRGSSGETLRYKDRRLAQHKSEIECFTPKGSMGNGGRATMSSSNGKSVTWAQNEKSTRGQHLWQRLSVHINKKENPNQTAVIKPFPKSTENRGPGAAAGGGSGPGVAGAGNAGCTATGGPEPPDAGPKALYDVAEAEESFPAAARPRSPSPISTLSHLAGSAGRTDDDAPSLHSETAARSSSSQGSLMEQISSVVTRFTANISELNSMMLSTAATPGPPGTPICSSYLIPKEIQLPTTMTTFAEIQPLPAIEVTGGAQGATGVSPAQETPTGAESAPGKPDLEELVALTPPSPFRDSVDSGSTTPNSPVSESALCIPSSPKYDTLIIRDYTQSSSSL

SMILES	EC50 [2]	IC50 ([3]; read-out: IC50)	also measured
N[C@@H](Cn1oc(=O)[nH]c1=O)C(=O)O	–	–	EC80 [1]: 100 nM
COc1cc(C#Cc2ccccn2)ccc1NC(=O)c1ccccc1Cl	> 30000 nM	24 nM	Ratio IC50 [4]: 4
COc1cc(NC(=O)c2ccccn2)ccc1C#Cc1ccccc1Cl	4100 nM	–	IC50 ([3]; hek293): Not Active
COc1cc(NC(=O)c2ccccn2)ccc1NC(=O)c1ccccc1Cl	104 nM	> 30000 nM	–
N[C@@H](CCP(=O)(O)O)C(=O)O	–	–	EC10 [5]: 10 nM
